One compound from patent EP0006061A1, “Medicinal compound consisting of a derivative of cyclopentyl aldehyde” (INSTITUT DE RECHERCHES CHIMIQUES ET BIOLOGIQUES APPLIQUEES …, priority 1978, dated 1979) can be followed below.

One experiment has as its system l'animal vivant. Briefly: antispasmodic activity in vivo, method of KONZETT & ROESLLER
Conditions: iv, i.v. administration, read-out: DE - 50 (the source's name). As to the method:
(§1) Les essais pharmaceutiques qui ont été mis en oeuvre avec les produits des exemples 1 et 4, ont été résumés ci-après : • 1°/ essais avec l'exemple 1 • a/ activité bactériostatique L' α-(2-formyl-3-méthyl-cyclopentyl)-acétal- déhyde inhibe les bactéries Gram (+) et Gram (-). Les CMI (concentration minimale inhibitrice) sont les suivantes : 0,75 mg/ml sur Staphylococcus aureus Londres, 1,2 mg/ml sur Escherichia coli, et 1,5 mg/ml sur Proteus • b/ activité antispasmodique : Les DE-50 du produit de l'exemple 1 ont été déterminés • (i) in vitro sur iléon isolé de cobaye vis à vis de l'histamine : DE - 50 = 50 γ/ml; • (ii) in vivo sur l'animal vivant selon la méthode de KONZETT & ROESLLER : DE - 50 = 2,6 mg/kg par administration i.v. • c/ activité antianaphylactique : Des cobayes mâles sont sensibilisés par deux injections de 0,5 ml d'une solution d'albumine à 2 g/1, à deux jours d'intervalle. Quatre semaines aprës,le choc anaphylactique mortel est provoqué par injection i.v. de 0,2 ml d'une solution aqueuse d'ovalbumine à 2 g/1. Les produits à tester sont administrés 30 mn avant (administration i.p.) ou en même temps (administration i.v.) que l'injection provoquant ledit choc anaphylactique. […]

A further experiment deals with Escherichia coli. Put plainly: bacteriostatic activity (MIC). It is filed as cell-based. To be noted: read-out: CMI (concentration minimale inhibitrice). On the procedure: (§2) Les essais pharmaceutiques qui ont été mis en oeuvre avec les produits des exemples 1 et 4, ont été résumés ci-après : • 1°/ essais avec l'exemple 1 • a/ activité bactériostatique L' α-(2-formyl-3-méthyl-cyclopentyl)-acétal- déhyde inhibe les bactéries Gram (+) et Gram (-). Les CMI (concentration minimale inhibitrice) sont les suivantes : 0,75 mg/ml sur Staphylococcus aureus Londres, 1,2 mg/ml sur Escherichia coli, et 1,5 mg/ml sur Proteus • b/ activité antispasmodique : Les DE-50 du produit de l'exemple 1 ont été déterminés • (i) in vitro sur iléon isolé de cobaye vis à vis de l'histamine : DE - 50 = 50 γ/ml; • (ii) in vivo sur l'animal vivant selon la méthode de KONZETT & ROESLLER : DE - 50 = 2,6 mg/kg par administration i.v. • c/ activité antianaphylactique : Des cobayes mâles sont sensibilisés par deux injections de 0,5 ml d'une solution d'albumine à 2 g/1, à deux jours d'intervalle. Quatre semaines aprës,le choc anaphylactique mortel est provoqué par injection i.v. de 0,2 ml d'une solution aqueuse d'ovalbumine à 2 g/1. Les produits à tester sont administrés 30 mn avant (administration i.p.) ou en même temps (administration i.v.) que l'injection provoquant ledit choc anaphylactique. Les résultats sont donnés dans le tableau I pour le produit de l'exemple 1 et la Prométhazine en tant que produit de référence : [formula] • 2°/ essais avec le produit de l'exemple 4 (constitué par un mélange de 87 % en poids d'isomère "cis-trans" et 13 % en poids d'isomère "trans-cis). • a/ activité bactériostatigue : Le produit de l'exemple 4 inhibe les bactéries Gram (+) et Gram (-). Ses CMI sont les suivantes : • 1,5 mg/m sur Staphylococcus aureus, Londres • 1 mg/ml sur Escherichia coli (souche 548) • 1,75 mg/ml sur Proteus vulgaris (souche 1557) • 2,5 mg/ml sur Klebsiella pneumoniae (souche 433), • 1 mg/ml sur Salmonella typhi murium (souche IP), • 1,5 mg/ml sur Staphylococcus aureus (souche 634), • 1,25 mg/ml sur Streptococcus (souche 1178) • 1,25 mg/ml sur Bacillus substilis, (les souches 548, 1557, 433, 634, et 1178 étant celles du catalogue de la collection du "Centre International de Distribution de Souches et d'Information sur les Types Microbiens" de . Lausanne, et la souche "IP" provenant de l'Institut Pasteur de Paris. • b/ activité bactéricide Le produit de l'exemple 4 détruit les bactéries Gram (+) et Gram (-). Ses CMB (concentration minimalebactéricide) déterminées sur milieu solide (quand moins de 0,01% de germes survivent) sont : • 1,75 mg/ml sur Staphylococcus aureus Londres • 1,5 mg/ml sur Escherichia coli (souche 548) • 2 mg/ml sur Proteus vulgaris (souche 1557) • 3 mg/ml sur Klebsiella pneumoniae (souche 433), • 1,25 mg/ml sur Salmonella typhi murium (souche I.P.) • 1,75 mg/ml sur Staphylococcus aureus (souche 634) • 2 mg/ml sur Streptococcus (souche 1178) • 2,5 mg/ml sur Bacillus substilis. • c/ activité bronchospatique Des cobayes mâles ou femelles [20 animaux (pesant 300-500 g) par dose et par produit à tester] sont exposés à un aérosol de l'exemple 4 (50 g/l en solution eau-éthanol) ou de Prométhazine (produit de référence) pendant 10 mn.

Experiment [1] deals with Staphylococcus aureus Londres. Put plainly: bacteriostatic activity (MIC). It counts as cell-based. To be noted: read-out: CMI (concentration minimale inhibitrice). As to the method:
as §2

Another experiment has as its system Proteus. Briefly: bacteriostatic activity (MIC). Conditions: read-out: CMI (concentration minimale inhibitrice). It counts as cell-based. As to the method:
as §2

The next experiment concerns iléon isolé de cobaye. Briefly: antispasmodic activity in vitro against histamine on isolated ileum. It is filed as cell-based. To be noted: isolated guinea pig ileum, read-out: DE - 50 (the source's name). On the procedure: as §1

Converted amounts (≈) assume the structure as drawn.

Take `CC1CCC(CC=O)C1C=O` (stereo not drawn) [Ex. 1, α-(2-formyl-3-méthyl-cyclopentyl)-acétaldéhyde]: the ED50 in the experiment on l'animal vivant stood at 2.6 mg/kg. Also, the MIC was 1200 µg/mL (≈ 7.78 mM) with Escherichia coli, 750 µg/mL (≈ 4.86 mM) in experiment [1] and 1500 µg/mL (≈ 9.73 mM) in the experiment on Proteus. The EC50 in the experiment on iléon isolé de cobaye is 50 µg/mL (≈ 0.324 mM).
